Data taken from US20150111852A1, “1-Di(sec-butyl)-phosphinoyl-pentane (dapa-2-5) as a topical agent” (priority 2013, published 2015).

What was measured:
capsaicin-induced cough = assay: Guinea pig cough model, capsaicin mist; assay type: in vivo; details: capsaicin 0.1 mM mist, identical design
Method: This study was repeated with an identical design, but using capsaicin 0.1 mM mist as the stimulus.

ASIC3 (acid-sensing) = molecular target: T1, ASIC3 (acid-sensing) (Homo sapiens, UniProt Q9UHC3); assay: Patch-clamp in transfected cells, ASIC3; assay type: cell-based; details: DAPA-2-5 at 5 μM; positive control amiloride
T1 construct: expressed in transfected cells
T1 sequence (Q9UHC3 1-531): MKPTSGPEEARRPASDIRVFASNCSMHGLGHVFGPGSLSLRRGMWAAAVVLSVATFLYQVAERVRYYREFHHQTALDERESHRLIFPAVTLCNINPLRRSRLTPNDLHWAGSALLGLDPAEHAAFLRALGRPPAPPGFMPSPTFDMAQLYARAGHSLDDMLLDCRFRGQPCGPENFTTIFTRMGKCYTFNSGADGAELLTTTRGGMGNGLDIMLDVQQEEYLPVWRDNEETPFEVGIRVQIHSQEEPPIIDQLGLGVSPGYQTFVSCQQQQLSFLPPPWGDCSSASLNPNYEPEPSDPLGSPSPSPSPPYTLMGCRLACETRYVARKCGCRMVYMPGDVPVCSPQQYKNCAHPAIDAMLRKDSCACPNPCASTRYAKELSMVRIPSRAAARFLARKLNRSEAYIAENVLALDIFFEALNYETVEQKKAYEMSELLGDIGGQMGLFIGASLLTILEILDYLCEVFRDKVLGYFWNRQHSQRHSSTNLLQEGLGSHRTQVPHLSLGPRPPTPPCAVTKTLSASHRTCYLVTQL

[1] = test system: citric acid-induced cough; assay: Guinea pig cough model, citric acid mist; assay type: in vivo; details: 2 mg/mL in saline, 75 μL per animal, 1 M citric acid mist, 10 min observation period
Method: Male specific pathogen—free guinea pigs about one month of age, weighing 250 to 300 g, were obtained from the medical experimental animal center of Guang Dong Province, China, and housed in rooms maintained at 22±2° C. and 55±15% humidity with a 12-hr light cycle and 20 air changes per hr. The experimental procedures were approved by the Institutional Animal Care and Use Committee. Guinea pigs were placed in a transparent plastic 2 L plethysmography chamber equipped with a bias flow regulator that withdrew air at a rate of 2.5 L/min (Buxco, Wilmington, N.C., USA). […] The frequency was detected as a transient change in airflow in the chamber and the signal recorded via a pressure transducer and computer. Additionally, the audio-amplified count was also recorded electronically. Coughs were counted for the 10 min exposure period. The experiment was visually monitored by the investigator. The baseline frequency of coughing was recorded for all animals (N=20) and 7 days later, animals were anesthetized with diethyl ether. […] Ten min after injection, the guinea pigs were exposed to the citric acid mist and the number of coughs recorded.

**Q.** What does the source list for `CCCCCP(=O)(C(C)CC)C(C)CC` (stereo not drawn) [DAPA-2-5, 1-Di(sec-butyl)-phosphinoyl-pentane]?
**A.** effect on capsaicin-induced coughing (capsaicin-induced cough): inhibited the capsaiscin-induced coughing; agonist or antagonist activity, ASIC3 (ASIC3 (acid-sensing)): No agonist or antagonist activities; cough frequency [1]: 6.7±1.6 coughs
